The source of these data is ChEMBL document CHEMBL1201862, “PubChem BioAssay data set” (2004).

Test [1] can be described thus: activation of miR-122 Renilla sensor silencing – cell-based, Huh7 psiCHECK-miR122, Renilla luciferase, cherry-picked, dose response (AID 651956).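 Also: huh7 hepatoma cells stably carrying a psiCHECK-2 miR-122 sensor plasmid; renilla luciferase signal reporting endogenous miR-122 activity after 48 h compound exposure.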 The class given is functional.
The next test in a line: cells. It counts as functional, cell-based.
The target in the next test is Phospholipase A2 (Homo sapiens, UniProt P04054). In words: phospholipase A2 activity inhibition – biochemical, set 2, counter-screen for ATG4B inhibitor project, dose response (AID 588586). The class given is functional. On the technique in general: Counterscreens check selectivity or assay interference.
Phospholipase A2, sequence (P04054 whole entry): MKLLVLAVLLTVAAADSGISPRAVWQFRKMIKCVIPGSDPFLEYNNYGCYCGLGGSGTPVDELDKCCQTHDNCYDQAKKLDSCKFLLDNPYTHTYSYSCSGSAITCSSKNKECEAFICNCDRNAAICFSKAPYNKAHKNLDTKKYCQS
The target in test [2] is T1, Apoptotic protease-activating factor 1 (Homo sapiens, UniProt O14727).
T1 sequence (O14727 whole entry): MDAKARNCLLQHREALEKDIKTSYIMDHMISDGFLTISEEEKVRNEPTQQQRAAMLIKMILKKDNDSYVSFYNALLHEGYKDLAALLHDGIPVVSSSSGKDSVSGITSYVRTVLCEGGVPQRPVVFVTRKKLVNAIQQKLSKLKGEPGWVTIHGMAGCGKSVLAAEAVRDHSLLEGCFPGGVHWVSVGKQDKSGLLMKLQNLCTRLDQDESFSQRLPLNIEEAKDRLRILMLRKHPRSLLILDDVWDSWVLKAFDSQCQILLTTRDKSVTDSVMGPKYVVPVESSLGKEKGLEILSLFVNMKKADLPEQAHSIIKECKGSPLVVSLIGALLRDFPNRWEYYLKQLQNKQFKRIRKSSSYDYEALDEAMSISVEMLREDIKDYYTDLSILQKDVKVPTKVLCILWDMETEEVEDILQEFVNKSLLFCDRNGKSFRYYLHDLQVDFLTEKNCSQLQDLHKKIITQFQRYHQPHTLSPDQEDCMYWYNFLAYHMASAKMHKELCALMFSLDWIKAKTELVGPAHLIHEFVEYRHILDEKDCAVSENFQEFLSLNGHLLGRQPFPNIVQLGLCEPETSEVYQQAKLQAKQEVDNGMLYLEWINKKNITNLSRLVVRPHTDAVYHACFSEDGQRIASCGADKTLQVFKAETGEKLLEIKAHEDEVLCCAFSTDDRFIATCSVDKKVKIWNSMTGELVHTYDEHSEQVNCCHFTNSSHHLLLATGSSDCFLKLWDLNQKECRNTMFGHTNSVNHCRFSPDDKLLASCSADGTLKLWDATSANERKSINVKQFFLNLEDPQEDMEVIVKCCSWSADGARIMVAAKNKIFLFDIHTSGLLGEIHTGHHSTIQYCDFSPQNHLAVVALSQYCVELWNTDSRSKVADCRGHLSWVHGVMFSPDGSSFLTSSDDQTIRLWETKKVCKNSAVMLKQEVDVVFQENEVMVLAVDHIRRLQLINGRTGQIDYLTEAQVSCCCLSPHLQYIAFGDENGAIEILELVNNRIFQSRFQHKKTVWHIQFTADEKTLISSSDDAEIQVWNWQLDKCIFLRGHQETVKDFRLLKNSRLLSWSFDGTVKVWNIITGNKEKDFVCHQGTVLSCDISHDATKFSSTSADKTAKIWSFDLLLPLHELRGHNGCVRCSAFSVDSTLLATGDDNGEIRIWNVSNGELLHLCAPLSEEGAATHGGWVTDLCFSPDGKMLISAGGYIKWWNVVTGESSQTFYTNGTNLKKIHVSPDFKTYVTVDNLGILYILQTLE
The class given is functional.

The next test deals with Cytochrome P450 2C19 (Homo sapiens, UniProt P33261). In words: Cytochrome panel assay with activity outcomes. Panel member name: p450-cyp2c19 Compounds with AC50 equal or less than 10 uM are considered active. Conditions: read-out: AC50. The class given is functional.
Cytochrome P450 2C19, sequence (P33261 whole entry): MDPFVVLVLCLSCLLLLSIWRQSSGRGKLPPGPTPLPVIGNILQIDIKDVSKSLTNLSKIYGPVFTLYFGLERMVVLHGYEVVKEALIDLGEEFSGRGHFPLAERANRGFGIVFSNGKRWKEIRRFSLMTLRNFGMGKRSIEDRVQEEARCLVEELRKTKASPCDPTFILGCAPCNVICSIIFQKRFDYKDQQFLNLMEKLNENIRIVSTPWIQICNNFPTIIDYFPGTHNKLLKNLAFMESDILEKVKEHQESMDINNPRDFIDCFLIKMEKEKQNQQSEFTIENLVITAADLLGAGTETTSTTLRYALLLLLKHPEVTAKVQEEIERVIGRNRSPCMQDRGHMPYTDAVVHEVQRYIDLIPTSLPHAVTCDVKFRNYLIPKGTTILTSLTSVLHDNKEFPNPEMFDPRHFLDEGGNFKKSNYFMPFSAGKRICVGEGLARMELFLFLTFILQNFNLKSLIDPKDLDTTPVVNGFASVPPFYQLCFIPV
In test [3] the target is Likely tRNA 2'-phosphotransferase (Candida albicans (strain SC5314 / ATCC MYA-2876) (Yeast), UniProt Q5A7N4). Put plainly: inhibition of Candida TPT1 enzyme activity – biochemical, fluorescence polarization, dose response (AID 2160). (In fluorescence polarisation assays a small probe gives low polarisation when free and higher when bound to something large.)
Likely tRNA 2'-phosphotransferase, sequence (Q5A7N4 whole entry): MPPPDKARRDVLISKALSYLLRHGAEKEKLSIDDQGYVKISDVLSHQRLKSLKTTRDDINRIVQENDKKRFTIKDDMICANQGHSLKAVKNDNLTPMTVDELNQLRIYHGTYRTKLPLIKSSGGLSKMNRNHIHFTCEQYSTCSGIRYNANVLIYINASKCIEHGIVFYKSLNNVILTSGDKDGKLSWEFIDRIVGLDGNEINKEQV
A further test has as its system HEK293. In words: optical interference in Abeta FP readout, dose response, artefact control for IDE activator project, biochemical, fluorescence polarization (AID 588442). The class given is functional, cell-based. Conditions: Homo sapiens.
Test [4] addresses T2, Histone-lysine N-methyltransferase NSD2 (Homo sapiens, UniProt O96028).
T2 sequence (O96028 whole entry): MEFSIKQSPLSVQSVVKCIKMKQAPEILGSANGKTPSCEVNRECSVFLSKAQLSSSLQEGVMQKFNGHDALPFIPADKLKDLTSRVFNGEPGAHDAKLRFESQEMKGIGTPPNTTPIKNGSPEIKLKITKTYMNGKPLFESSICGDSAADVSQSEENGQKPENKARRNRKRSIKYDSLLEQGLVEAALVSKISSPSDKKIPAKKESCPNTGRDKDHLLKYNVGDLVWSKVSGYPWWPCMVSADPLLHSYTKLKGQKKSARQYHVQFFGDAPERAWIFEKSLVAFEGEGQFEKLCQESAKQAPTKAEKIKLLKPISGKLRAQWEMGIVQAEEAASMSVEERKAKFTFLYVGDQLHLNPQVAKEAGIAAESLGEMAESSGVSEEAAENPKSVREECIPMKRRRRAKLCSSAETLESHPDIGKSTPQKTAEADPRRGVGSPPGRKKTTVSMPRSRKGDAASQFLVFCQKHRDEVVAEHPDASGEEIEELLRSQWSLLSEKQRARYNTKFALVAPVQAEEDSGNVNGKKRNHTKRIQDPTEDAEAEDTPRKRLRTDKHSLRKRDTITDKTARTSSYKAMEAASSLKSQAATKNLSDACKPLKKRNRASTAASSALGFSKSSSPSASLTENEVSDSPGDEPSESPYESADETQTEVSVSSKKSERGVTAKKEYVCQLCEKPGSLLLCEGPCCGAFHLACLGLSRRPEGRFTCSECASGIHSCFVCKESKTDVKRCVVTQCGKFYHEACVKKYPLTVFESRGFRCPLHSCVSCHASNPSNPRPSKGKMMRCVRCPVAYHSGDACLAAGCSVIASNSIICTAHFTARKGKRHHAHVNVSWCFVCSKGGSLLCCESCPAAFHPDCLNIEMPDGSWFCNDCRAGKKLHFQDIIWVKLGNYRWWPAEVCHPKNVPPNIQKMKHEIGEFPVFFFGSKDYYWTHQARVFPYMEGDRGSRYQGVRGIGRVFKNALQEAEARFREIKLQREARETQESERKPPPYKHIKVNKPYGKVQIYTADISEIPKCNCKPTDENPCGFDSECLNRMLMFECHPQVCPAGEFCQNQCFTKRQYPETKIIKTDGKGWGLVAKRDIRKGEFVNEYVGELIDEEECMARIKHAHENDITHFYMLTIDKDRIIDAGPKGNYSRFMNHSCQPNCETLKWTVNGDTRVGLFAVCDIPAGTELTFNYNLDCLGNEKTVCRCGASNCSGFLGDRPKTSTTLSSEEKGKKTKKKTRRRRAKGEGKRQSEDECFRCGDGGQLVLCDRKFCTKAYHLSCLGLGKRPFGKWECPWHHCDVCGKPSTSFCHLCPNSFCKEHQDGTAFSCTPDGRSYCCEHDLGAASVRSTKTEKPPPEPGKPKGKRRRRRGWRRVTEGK
The class given is biochemical.

SMILES strings stand for the structures. Activity calls are given as the source filed them. Where only a bound is given, the exact number is not on record here.

With `Oc1ccc2ccccc2c1/C=N/Nc1nnc(-c2ncc[nH]2)c2ccccc12`, the AC50 (in general, the midpoint of the concentration-response curve, whichever way the signal moves) in test [1] is 37.6 µM (active). For the same compound, the EC50 (in general, the concentration at which the effect is half-maximal) in the test “cells” was > 350 µM (not active). Moreover, the IC50 – broadly, the concentration needed to halve the response being measured – at Phospholipase A2 is 2.47 µM (active).
As to `CC(C)C(C(=O)O)N1C(=O)/C(=C/C=C/c2ccco2)SC1=S` (stereo not drawn), the IC50 in test [2] is > 100 µM (inactive); in test [3], 20.5 µM (not active). On Cytochrome P450 2C19, the half-maximal activity concentration (AC50) was 10 µM (inconclusive).
Consider `O=C1CCN2C=Nc3cccc4ccc1c2c34`, for which the EC50 in the test with HEK293 was 17 µM (inactive). Further, in test [4], the AC50 is 9.91 µM (active).
